Where two headings read alike, the source gives them in different places.
Columns and labels:
EGFR (L858R T790M C797S) = target: T1, EGFR (L858R T790M C797S) (Homo sapiens, UniProt P00533, C797S/L858R/T790M); experiment: Biochemical EGFR inhibition assay (Caliper mobility shift), EGFR LRTMCS mutant; conditions: inhibitory activity against EGFR LRTMCS mutant; apparent IC50; read-out: Ext Enz LRTMCS
T1 construct: purchased SignalChem E10-122VG
Outline: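 Each enzyme was allowed to phosphorylate 10–20% of its peptide at 25° C. before EDTA (35 mM) quench. Separated substrate and product peaks were measured by mobility shift, giving apparent IC50 values.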

[1] = test system: phosphorylation of EGFR (Tyr1068) in NCI-H1975 cell line that harbors the EGFR L858R T790M mutations; experiment: NCI-H1975 pEGFR AlphaLISA assay; assay type: cell-based; conditions: 4-5 hours incubation, read-out: Ext pEGFR H1975
Outline: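 Phospho-EGFR Tyr1068 AlphaLISA readout: lysates taken from compound-treated H1975 cells (L858R T790M EGFR) after a 4-5 h exposure at 37 °C. Cells had adhered overnight beforehand. IC50 derived by plotting % pEGFR inhibition against log compound concentration.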

[2] = Homo sapiens, NCI-H1975, inhibition of phosphorylation of mutant EGFR in NCI-H1975 cells
[3] = inhibition of phosphorylation of mutant EGFR in NCI-H1975 cells

Row | IC50 (EGFR (L858R T790M C797S)) [µM] | IC50 [1, 2] [µM] | IC50 [1, 3] [µM] | Compound
1 | 0.0201 to 0.03 | 0.0301 to 0.05 | – | CC1(C)CN(c2nccc(Nc3cc4c(F)cc(F)c(N5CC(CS(C)(=O)=O)C5)c4cn3)n2)C[C@@H](F)[C@H]1O (single isomer, unassigned) [Compound 86, (4S,5R)-1-[4-[[5,7-difluoro-8-[3-(methylsulfonylmethyl)azetidin-1-yl]-3-isoquinolyl]amino]pyrimidin-2-yl]-5-fluoro-3,3-dimethyl-piperidin-4-ol or (4R,5S)-1-[4-[[5,7-difluoro-8-[3-(methylsulfonylmethyl)azetidin-1-yl]-3-isoquinolyl]amino]pyrimidin-2-yl]-5-fluoro-3,3-dimethyl-piperidin-4-ol]
2 | ≤ 0.015 | 0.0101 to 0.02 | – | CC(C)c1ccc(N2CC(CS(C)(=O)=O)C2)c2cnc(Nc3ccnc(N4CCC(C)(O)CC4)n3)cc12 [Compound 17, 1-[4-({8-[3-(methanesulfonylmethyl)azetidin-1-yl]-5-(propan-2-yl)isoquinolin-3-yl}amino)pyrimidin-2-yl]-4-methylpiperidin-4-ol]
3 | ≤ 0.015 | ≤ 0.01 | – | CO[C@@H]1CN(c2nccc(Nc3cc4c(C(C)C)ccc(N5C[C@H](CS(C)(=O)=O)[C@H]5C)c4cn3)n2)C[C@H](F)[C@@H]1O (single isomer, unassigned) [Compound 204, (3S,4R,5R)-3-fluoro-1-[4-({8-[(2R,3S)-3-(methanesulfonylmethyl)-2-methylazetidin-1-yl]-5-(propan-2-yl)isoquinolin-3-yl}amino)pyrimidin-2-yl]-5-methoxypiperidin-4-ol or (3R,4S,5S)-3-fluoro-1-[4-({8-[(2R,3S)-3-(methanesulfonylmethyl)-2-methylazetidin-1-yl]-5-(propan-2-yl)isoquinolin-3-yl}amino)pyrimidin-2-yl]-5-methoxypiperidin-4-ol]
4 | ≤ 0.015 | ≤ 0.01 | – | CC(C)c1ccc(N2C[C@H](CS(C)(=O)=O)[C@H]2C)c2cnc(Nc3ccnc(N4CCC(OCCO)CC4)n3)cc12 [Compound 171, 2-({1-[4-({8-[(2R,3S)-3-(methanesulfonylmethyl)-2-methylazetidin-1-yl]-5-(propan-2-yl)isoquinolin-3-yl}amino)pyrimidin-2-yl]piperidin-4-yl}oxy)ethan-1-ol]
5 | ≤ 0.015 | ≤ 0.01 | – | CC(C)c1cnc(N2C[C@H](CS(C)(=O)=O)[C@H]2C)c2cnc(Nc3ccnc(N4CC[C@](C)(O)[C@H](F)C4)n3)cc12 (single isomer, unassigned) [Compound 135]
6 | 0.0151 to 0.02 | – | 0.0101 to 0.02 | CC(C)c1ccc(N2CC(CS(C)(=O)=O)C2)c2cnc(Nc3ccnc(N4CC[C@H](O)[C@H](C)C4)n3)cc12 (single isomer, unassigned) [Compound 19, (3S,4R)-1-[4-({8-[3-(methanesulfonylmethyl)azetidin-1-yl]-5-(propan-2-yl)isoquinolin-3-yl}amino)pyrimidin-2-yl]-3-methylpiperidin-4-ol or (3R,4S)-1-[4-({8-1,3-(methanesulfonylmethyl)azetidin-1-yl]-5-(propan-2-yl)isoquinolin-3-yl}amino)pyrimidin-2-yl]-3-methylpiperidin-4-ol]
7 | ≤ 0.015 | ≤ 0.01 | – | CC(C)c1ccc(N2CC(CS(C)(=O)=O)C2)c2cnc(Nc3ccnc(N4CC[C@@H](O)[C@@H](F)C4)n3)cc12 [Compound 28, (3S,4R)-3-fluoro-1-[4-({8-[3-(methanesulfonylmethyl)azetidin-1-yl]-5-(propan-2-yl)isoquinolin-3-yl}amino)pyrimidin-2-yl]piperidin-4-ol]
8 | 0.0151 to 0.02 | – | 0.0101 to 0.02 | (R)-methyl({1-[3-({2-[(3R,4S)-3-fluoro-4-methoxypiperidin-1-yl]pyrimidin-4-yl}amino)-5-(propan-2-yl)isoquinolin-8-yl]azetidin-3-yl}methyl)imino-λ^6-sulfanone or (S)-methyl({1-[3-({2-[(3R,4S)-3-fluoro-4-methoxypiperidin-1-yl]pyrimidin-4-yl}amino)-5-(propan-2-yl)isoquinolin-8-yl]azetidin-3-yl}methyl)imino-λ^6-sulfanone [Compound 274]
9 | ≤ 0.015 | ≤ 0.01 | – | COC1(CO)CCN(c2nccc(Nc3cc4c(C(C)C)ccc(N5C[C@H](CS(C)(=O)=O)[C@H]5C)c4cn3)n2)CC1 [Compound 175, {1-[4-({8-[(2R,3S)-3-(methanesulfonylmethyl)-2-methylazetidin-1-yl]-5-(propan-2-yl)isoquinolin-3-yl}amino)pyrimidin-2-yl]-4-methoxypiperidin-4-yl}methanol]
10 | ≤ 0.015 | 0.0101 to 0.02 | – | CC(C)c1ccc(N2C[C@H](CS(C)(=O)=O)[C@H]2C)c2cnc(Nc3cnnc(N4CC[C@](C)(O)[C@H](F)C4)n3)cc12 (single isomer, unassigned) [Compound 141]
11 | ≤ 0.015 | 0.0201 to 0.03 | – | CCOc1ccc(N2CC(CS(C)(=O)=O)C2)c2cnc(Nc3ccnc(N4CC[C@@H](O)[C@@](C)(F)C4)n3)cc12 (single isomer, unassigned) [Compound 78]
12 | ≤ 0.015 | 0.0201 to 0.03 | – | C[C@H](CO)c1ccc(N2CC(CS(C)(=O)=O)C2)c2cnc(Nc3ccnc(N4CCC5(CCO5)CC4)n3)cc12 (single isomer, unassigned) [Compound 87, (2S)-2-{8-[3-(methanesulfonylmethyl)azetidin-1-yl]-3-[(2-{1-oxa-7-azaspiro[3,5]nonan-7-yl}pyrimidin-4-yl)amino]isoquinolin-5-yl}propan-1-ol or (2R)-2-{8-[3-(methanesulfonylmethyl)azetidin-1-yl]-3-[(2-{1-oxa-7-azaspiro[3.5]nonan-7-yl}pyrimidin-4-yl)amino]isoquinolin-5-yl}propan-1-ol]
13 | ≤ 0.015 | ≤ 0.01 | – | CCS(=O)(=O)C[C@H]1CN(c2ncc(C(C)C)c3cc(Nc4ccnc(N5CC[C@](C)(O)[C@H](F)C5)n4)ncc23)[C@@H]1C (single isomer, unassigned) [Compound 191]
14 | ≤ 0.015 | ≤ 0.01 | – | CC(C)c1cnc(N2C[C@H](CS(C)(=O)=O)[C@H]2C)c2cnc(Nc3ccnc(N4CC[C@H](OCC(C)(C)O)[C@H](F)C4)n3)cc12 [Compound 259, 1-{[(3R,4S)-3-fluoro-1-[4-({8-[(2R,3S)-3-(methanesulfonylmethyl)-2-methylazetidin-1-yl]-5-(propan-2-yl)-2,7-naphthyridin-3-yl}amino)pyrimidin-2-yl]piperidin-4-yl]oxy}-2-methylpropan-2-ol]
15 | ≤ 0.015 | ≤ 0.01 | – | CO[C@H]1CN(c2nccc(Nc3cc4c(C(C)C)ccc(N5C[C@H](CS(C)(=O)=O)[C@H]5C)c4cn3)n2)CC[C@H]1O (single isomer, unassigned) [Compound 97, (3S,4R)-1-[4-({8-[(2R,3S)-3-(methanesulfonylmethyl)-2-methylazetidin-1-yl]-5-(propan-2-yl)isoquinolin-3-yl}amino)pyrimidin-2-yl]-3-methoxypiperidin-4-ol or (3R,4S)-1-[4-({8-[(2R,3S)-3-(methanesulfonylmethyl)-2-methylazetidin-1-yl]-5-(propan-2-yl)isoquinolin-3-yl}amino)pyrimidin-2-yl]-3-methoxypiperidin-4-ol]
16 | ≤ 0.015 | ≤ 0.01 | – | CO[C@H]1CCN(c2nccc(Nc3cc4c(C(C)C)cnc(N5CC(CS(C)(=O)=O)C5)c4cn3)n2)C[C@H]1F [Compound 71, N-{2-[(3R,4S)-3-fluoro-4-methoxypiperidin-1-yl]pyrimidin-4-yl}-8-[3-(methanesulfonylmethyl)azetidin-1-yl]-5-(propan-2-yl)-2,7-naphthyridin-3-amine]

Source: US12172983B2, “EGFR inhibitors” (Blueprint Medicines Corporation, priority 2019, dated 2024)
